From publication PMC6980356 (Bioorganic & medicinal chemistry letters, 2014)

Tests used:
hTRPV1 [1] = molecular target: T1, hTRPV1 (Homo sapiens, UniProt Q8NER1); assay: FLIPR inhibition of TRPV1 activation by capsaicin; format: cell-based; details: for antagonism toward capsaicin (in words): capsaicin 100 nM, hTRPV1 in CHO cells
hTRPV1 [2] = molecular target: T1, hTRPV1; assay: hTRPV1 antagonism toward pH activation; format: cell-based; details: activator pH
[3] = test system: CCI-induced cold allodynia; assay: Mouse chronic constriction injury; format: in vivo; details: mouse CCI model, po
hTRPV1 [4] = molecular target: T1, hTRPV1; assay: hTRPV1 antagonism toward heat; format: cell-based
hTRPV1 [5] = molecular target: T1, hTRPV1; assay: hTRPV1 antagonism toward NADA activation; format: cell-based; details: activator NADA

T1 sequence (Q8NER1 whole entry): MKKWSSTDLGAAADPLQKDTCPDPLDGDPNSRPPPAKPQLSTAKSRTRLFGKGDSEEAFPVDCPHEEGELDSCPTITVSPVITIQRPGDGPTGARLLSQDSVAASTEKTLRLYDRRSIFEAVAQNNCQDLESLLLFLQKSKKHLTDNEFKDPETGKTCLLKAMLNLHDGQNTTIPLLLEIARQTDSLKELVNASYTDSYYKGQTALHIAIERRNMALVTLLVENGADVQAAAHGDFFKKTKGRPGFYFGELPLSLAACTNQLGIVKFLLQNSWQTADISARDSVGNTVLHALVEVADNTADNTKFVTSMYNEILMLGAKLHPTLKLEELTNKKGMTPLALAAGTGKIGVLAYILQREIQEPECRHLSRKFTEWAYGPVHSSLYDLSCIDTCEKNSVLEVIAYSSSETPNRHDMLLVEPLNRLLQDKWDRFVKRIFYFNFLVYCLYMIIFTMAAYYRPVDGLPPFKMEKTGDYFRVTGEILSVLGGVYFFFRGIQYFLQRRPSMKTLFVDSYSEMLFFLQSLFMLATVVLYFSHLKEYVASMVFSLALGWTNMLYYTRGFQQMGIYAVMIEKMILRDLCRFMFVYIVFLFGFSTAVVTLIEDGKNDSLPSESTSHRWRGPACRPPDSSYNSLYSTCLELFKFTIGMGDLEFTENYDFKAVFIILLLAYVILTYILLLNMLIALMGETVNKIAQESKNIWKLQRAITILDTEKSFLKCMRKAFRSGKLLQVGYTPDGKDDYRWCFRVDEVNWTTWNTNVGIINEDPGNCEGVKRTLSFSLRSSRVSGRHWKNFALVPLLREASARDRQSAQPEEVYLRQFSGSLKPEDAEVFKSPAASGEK

Compound	antagonism toward capsaicin (in words) (hTRPV1 [1])	fold increase in potency compared to 8 (hTRPV1 [1]; Ki(CAP) relative to parent 8)	also measured
Cc1cc(-c2nc(C(F)(F)F)ccc2CNC(=O)C(C)c2ccc(NS(C)(=O)=O)c(F)c2)ccc1F (stereo not drawn) [Compound 19]	retained high potencies	–	–
CC(C(=O)NCc1ccc(C(F)(F)F)nc1-c1ccc(F)cc1)c1ccc(NS(C)(=O)=O)c(F)c1 (stereo not drawn) [Compound 9]	excellent antagonism	16 fold	antagonism toward pH (in words) (hTRPV1 [2]): moderate antagonism; anti-allodynic efficacy (limited efficacy) [3]: 53 % MPE; IC50 (hTRPV1 [4]): 25.9 nM; antagonism toward heat (in words) (hTRPV1 [4]; activator heat): moderate antagonism; antagonism toward NADA (in words) (hTRPV1 [5]): excellent antagonism
CC(C(=O)NCc1ccc(C(F)(F)F)nc1-c1ccsc1)c1ccc(NS(C)(=O)=O)c(F)c1 (stereo not drawn) [Compound 27]	potent antagonist	–	–
CC(C(=O)NCc1ccc(C(F)(F)F)nc1-c1ccccc1F)c1ccc(NS(C)(=O)=O)c(F)c1 (stereo not drawn) [Compound 11]	–	–	fold reduction in potency compared to 8 (hTRPV1 [1]; Ki(CAP) relative to parent 8): 10 fold
CC(C(=O)NCc1ccc(C(F)(F)F)nc1-c1cccc(Cl)c1)c1ccc(NS(C)(=O)=O)c(F)c1 (stereo not drawn) [Compound 13]	–	13 fold	–
CC(C(=O)NCc1ccc(C(F)(F)F)nc1-c1ccc(F)c(Cl)c1)c1ccc(NS(C)(=O)=O)c(F)c1 (stereo not drawn) [Compound 18]	–	ca. 30 fold	–
CC(C(=O)NCc1ccc(C(F)(F)F)nc1-c1ccc(N(C)C)cc1)c1ccc(NS(C)(=O)=O)c(F)c1 (stereo not drawn) [Compound 15]	–	2 fold	–
CC(C(=O)NCc1ccc(C(F)(F)F)nc1-c1ccc(Cl)c(Cl)c1)c1ccc(NS(C)(=O)=O)c(F)c1 (stereo not drawn) [Compound 20]	retained high potencies	–	–
CC(C(=O)NCc1ccc(C(F)(F)F)nc1-c1ccc(C(C)(C)C)cc1)c1ccc(NS(C)(=O)=O)c(F)c1 (stereo not drawn) [Compound 16]	–	13 fold	–
CC(C(=O)NCc1ccc(C(F)(F)F)nc1-c1cccc(F)c1)c1ccc(NS(C)(=O)=O)c(F)c1 (stereo not drawn) [Compound 10]	–	5 fold	–
CC(C(=O)NCc1ccc(C(F)(F)F)nc1-n1ccnc1)c1ccc(NS(C)(=O)=O)c(F)c1 (stereo not drawn) [Compound 30]	weak antagonist	–	–

More lines, main results first:

antagonism toward capsaicin (in words) (hTRPV1 [1])	fold increase in potency compared to 8 (hTRPV1 [1]; Ki(CAP) relative to parent 8)	Compound	also measured
dramatic increase in antagonism	–	CC(C(=O)NCc1ccc(C(F)(F)F)nc1CCc1ccccc1)c1ccc(NS(C)(=O)=O)c(F)c1 (stereo not drawn) [Compound 36]	–
reasonable antagonism	–	CC(C(=O)NCc1ccc(C(F)(F)F)nc1-c1ccccc1)c1ccc(NS(C)(=O)=O)c(F)c1 (stereo not drawn) [Compound 8]	fold less potent than the 2-cyclohexyl derivative (hTRPV1 [1]; Ki(CAP) relative to 2-cyclohexyl derivative): ca. 10 fold
higher potency than phenyl derivative 8	–	CC(C(=O)NCc1ccc(C(F)(F)F)nc1-c1ccoc1)c1ccc(NS(C)(=O)=O)c(F)c1 (stereo not drawn) [Compound 29]	–
lack of activity	–	CC(C(=O)NCc1ccc(C(F)(F)F)nc1-c1cccc(NS(C)(=O)=O)c1)c1ccc(NS(C)(=O)=O)c(F)c1 (stereo not drawn) [Compound 17]	–
higher potency than phenyl derivative 8	–	CC(C(=O)NCc1ccc(C(F)(F)F)nc1-c1ccco1)c1ccc(NS(C)(=O)=O)c(F)c1 (stereo not drawn) [Compound 28]	–
–	9 fold	CC(C(=O)NCc1ccc(C(F)(F)F)nc1-c1ccc(Cl)cc1)c1ccc(NS(C)(=O)=O)c(F)c1 (stereo not drawn) [Compound 12]	–
weak antagonist	–	CC(C(=O)NCc1ccc(C(F)(F)F)nc1Cc1ccccc1)c1ccc(NS(C)(=O)=O)c(F)c1 (stereo not drawn) [Compound 35]	–
–	6 fold	COc1ccc(-c2nc(C(F)(F)F)ccc2CNC(=O)C(C)c2ccc(NS(C)(=O)=O)c(F)c2)cc1 (stereo not drawn) [Compound 14]	–
–	ca. 20 fold	CC(C(=O)NCc1ccc(C(F)(F)F)nc1-c1cccs1)c1ccc(NS(C)(=O)=O)c(F)c1 (stereo not drawn) [Compound 26]	–
